Experimental data taken from ChEMBL document CHEMBL4699481, “Structure-based amelioration of PXR transactivation in a novel series of macrocyclic allosteric inhibitors of HIV-1 integrase” (Bioorg Med Chem Lett, 2020).

Columns and labels:
[1] = Allosteric inhibition of HIV-1 integrase assessed as antiviral activity against HIV-1 NL4-3 infected in human MT-2 cells by measuring inhibition of viral growth by luciferase reporter gene assay; assay type: cell-based; conditions: Human immunodeficiency virus 1, NL4-3, MT2
[2] = target: T1, Nuclear receptor subfamily 1 group I member 2 (Homo sapiens, UniProt O75469); assay: Transactivation of human PXR transfected in human HepG2 cells co-transfected with CYP3A4-Luc plasmid incubated for overnight by luciferase reporter gene assay; assay type: ADME, cell-based
T1 sequence (O75469 whole entry): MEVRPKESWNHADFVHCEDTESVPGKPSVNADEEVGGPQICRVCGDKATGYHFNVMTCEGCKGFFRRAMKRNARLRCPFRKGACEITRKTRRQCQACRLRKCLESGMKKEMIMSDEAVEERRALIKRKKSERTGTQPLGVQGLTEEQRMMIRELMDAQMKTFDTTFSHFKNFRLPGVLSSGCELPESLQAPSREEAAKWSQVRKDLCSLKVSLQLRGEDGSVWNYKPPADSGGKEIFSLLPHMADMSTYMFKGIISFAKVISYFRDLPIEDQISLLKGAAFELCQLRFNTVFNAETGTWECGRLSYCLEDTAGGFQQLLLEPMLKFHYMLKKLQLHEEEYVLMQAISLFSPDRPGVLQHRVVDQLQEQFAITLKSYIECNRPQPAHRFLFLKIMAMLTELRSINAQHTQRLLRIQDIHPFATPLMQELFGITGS

PXR (NR1I2) = target: T2, PXR (NR1I2) (Homo sapiens, UniProt O75469); assay: Transactivation of human PXR transfected in human HepG2 cells co-transfected with CYP3A4-Luc plasmid incubated for overnight by luciferase reporter gene assay relative to 10 uM rifampicin; assay type: ADME, cell-based
T2 sequence (O75469 whole entry): T1 sequence (O75469 whole entry)

EC50 [2]	Emax (PXR (NR1I2))	SMILES	EC50 [1]
> 50000 nM		Cc1c([C@H](OC(C)(C)C)C(=O)O)c2n3cc(nc3c1CN(C)C)-c1cccc(c1)-c1cc(F)ccc1O[C@@H](C)CCCCOC1(C)CCN2CC1	4.4 nM
1010 nM	71%	Cc1c([C@H](OC(C)(C)C)C(=O)O)c2n3cc(nc3c1C(C)(C)O)-c1cccc(c1)-c1cc(F)ccc1O[C@@H](C)CCCCOC1(C)CCN2CC1	5.7 nM
> 50000 nM		Cc1c([C@H](OC(C)(C)C)C(=O)O)c2n3cc(nc3c1CNCC(C)(C)O)-c1cccc(c1)-c1cc(F)ccc1O[C@@H](C)CCCCOC1(C)CCN2CC1	9.5 nM
> 50000 nM		Cc1c([C@H](OC(C)(C)C)C(=O)O)c2n3cc(nc3c1CNC(C)C)-c1cccc(c1)-c1cc(F)ccc1O[C@@H](C)CCCCOC1(C)CCN2CC1	7.3 nM
		Cc1nc2cc(-c3cccc(-c4ccccc4)c3)nn2c(N2CCC(C)(C)CC2)c1[C@H](OC(C)(C)C)C(=O)O	130 nM
		Cc1cc2nc(-c3cccc(-c4cccc(F)c4)c3)cn2c(N2CCC(C)(C)CC2)c1[C@H](OC(C)(C)C)C(=O)O	20.9 nM
